Experimental data: PubChem BioAssay (NCI)
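Exposure lasted 48 hours, with cells grown in 96-well plates and compounds tested at five concentrations. TGI marks complete inhibition of growth.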

Key:
Experiment in all cases: growth of human tumour cells (NCI), 48 h
[1] = system: 786-0 renal
[2] = system: COLO 205 colon
[3] = system: HCT-116 colon
[4] = system: HL-60(TB) leukemia
[5] = system: HOP-92 NSCLC
[6] = system: MALME-3M melanoma
[7] = system: OVCAR-5 ovarian
[8] = system: SK-OV-3 ovarian
[9] = system: SNB-19 CNS
[10] = system: SR leukemia
[11] = system: SW-620 colon
[12] = system: UACC-257 melanoma
[13] = system: UACC-62 melanoma
[14] = system: K-562 leukemia
[15] = system: MOLT-4 leukemia
[16] = system: T-47D breast

Compound: COc1cc2c(cc1OC)[C@H]1C(COC(=O)c3ccccc3)CSC(=Nc3ccccc3)N1CC2 (stereo partly drawn)
- TGI [1]: > 100 µM
- TGI [2]: > 100 µM
- TGI [3]: > 100 µM
- TGI [4]: > 100 µM
- TGI [5]: > 100 µM
- TGI [6]: > 100 µM
- TGI [7]: > 100 µM
- TGI [8]: > 100 µM
- TGI [9]: > 100 µM
- TGI [10]: > 100 µM
- TGI [11]: > 100 µM
- TGI [12]: > 100 µM
- TGI [13]: > 100 µM

Compound: COc1c(Br)cc(/C=C(\C#N)c2cccnc2)cc1Br
- TGI [1]: > 100 µM
- TGI [2]: > 100 µM
- TGI [3]: > 100 µM
- TGI [4]: > 100 µM
- TGI [5]: 75 µM
- TGI [14]: > 100 µM
- TGI [6]: > 100 µM
- TGI [15]: > 100 µM
- TGI [7]: > 100 µM
- TGI [8]: > 100 µM
- TGI [9]: > 100 µM
- TGI [10]: > 100 µM
- TGI [11]: > 100 µM
- TGI [12]: > 100 µM
- TGI [13]: > 100 µM

Compound: O=C(O)CCc1cccc2c1oc1c(CCC(=O)O)cccc12
- TGI [1]: > 100 µM
- TGI [2]: > 100 µM
- TGI [3]: > 100 µM
- TGI [4]: > 100 µM
- TGI [5]: > 100 µM
- TGI [14]: > 100 µM
- TGI [6]: > 100 µM
- TGI [15]: > 100 µM
- TGI [7]: > 100 µM
- TGI [8]: > 100 µM
- TGI [9]: > 100 µM
- TGI [10]: > 100 µM
- TGI [11]: > 100 µM
- TGI [12]: > 100 µM
- TGI [13]: > 100 µM

Compound: CC(O)c1ccc[n+](Cc2ccccc2)c1 (stereo not drawn)
- TGI [1]: > 400 µM
- TGI [2]: > 400 µM
- TGI [3]: > 400 µM
- TGI [4]: > 400 µM
- TGI [5]: > 400 µM
- TGI [14]: > 400 µM
- TGI [6]: > 400 µM
- TGI [15]: > 400 µM
- TGI [7]: > 400 µM
- TGI [8]: > 400 µM
- TGI [9]: > 400 µM
- TGI [10]: > 400 µM
- TGI [11]: > 400 µM
- TGI [12]: > 400 µM
- TGI [13]: > 400 µM

Compound: C=CCc1ccccc1CC1(OCC)OC(=O)c2ccccc21 (stereo not drawn)
- TGI [1]: > 100 µM
- TGI [2]: > 100 µM
- TGI [3]: > 100 µM
- TGI [5]: > 100 µM
- TGI [14]: > 100 µM
- TGI [15]: > 100 µM
- TGI [7]: > 100 µM
- TGI [8]: > 100 µM
- TGI [9]: > 100 µM
- TGI [11]: > 100 µM
- TGI [16]: > 100 µM
- TGI [12]: > 100 µM
- TGI [13]: > 100 µM

Compound: Cc1ccc(C(=O)Nc2ccc(CP(=O)(O)O)cc2CP(=O)(O)O)cc1NC(=O)c1cccc(NC(=O)Nc2cccc(C(=O)Nc3cc(C(=O)Nc4ccc(CP(=O)(O)O)cc4CP(=O)(O)O)ccc3C)c2)c1
- TGI [1]: > 100 µM
- TGI [2]: > 100 µM
- TGI [3]: > 100 µM
- TGI [4]: > 100 µM
- TGI [14]: > 100 µM
- TGI [6]: > 100 µM
- TGI [15]: > 100 µM
- TGI [7]: > 100 µM
- TGI [8]: > 100 µM
- TGI [11]: > 100 µM
- TGI [16]: > 100 µM
- TGI [12]: > 100 µM
- TGI [13]: > 100 µM

Compound: Cc1ccc(C)n1-c1ccccc1C1C=CN(C(=O)OC(C)(C)C)C=C1
- TGI [1]: > 100 µM
- TGI [2]: 32.4 µM
- TGI [3]: 45.1 µM
- TGI [4]: > 100 µM
- TGI [5]: > 100 µM
- TGI [14]: > 100 µM
- TGI [6]: 47.8 µM
- TGI [15]: 68.7 µM
- TGI [7]: > 100 µM
- TGI [8]: > 100 µM
- TGI [9]: > 100 µM
- TGI [11]: 41.7 µM
- TGI [12]: > 100 µM
- TGI [13]: 77.9 µM

Compound: CSc1sc(=S)sc1C(=O)N(C)c1ccccc1
- TGI [1]: > 100 µM
- TGI [2]: > 100 µM
- TGI [3]: > 100 µM
- TGI [4]: > 100 µM
- TGI [14]: > 100 µM
- TGI [6]: > 100 µM
- TGI [15]: > 100 µM
- TGI [7]: > 100 µM
- TGI [9]: > 100 µM
- TGI [10]: > 100 µM
- TGI [11]: > 100 µM
- TGI [13]: > 100 µM

Compound: Cc1ccc(/C=C2\CN(C)CC3C2=NN(c2ccccc2)C3c2ccc(C)cc2)cc1 (stereo not drawn)
- TGI [1]: > 100 µM
- TGI [2]: > 100 µM
- TGI [3]: > 100 µM
- TGI [5]: > 100 µM
- TGI [14]: > 100 µM
- TGI [6]: > 100 µM
- TGI [15]: > 100 µM
- TGI [8]: > 100 µM
- TGI [9]: > 100 µM
- TGI [11]: > 100 µM
- TGI [16]: > 100 µM
- TGI [12]: > 100 µM
- TGI [13]: > 100 µM

Compound: COC(=O)NC12CC3CC(CC(F)(C3)C1)C2
- TGI [1]: > 100 µM
- TGI [2]: > 100 µM
- TGI [3]: > 100 µM
- TGI [4]: > 100 µM
- TGI [5]: > 100 µM
- TGI [14]: > 100 µM
- TGI [6]: > 100 µM
- TGI [15]: > 100 µM
- TGI [7]: > 100 µM
- TGI [8]: > 100 µM
- TGI [9]: > 100 µM
- TGI [11]: > 100 µM
- TGI [12]: > 100 µM
- TGI [13]: > 100 µM

Compound: O=C(c1ccccc1)N1OCCC1Nc1ccc(Br)cc1 (stereo not drawn)
- TGI [1]: > 10 µM
- TGI [2]: 4.33 µM
- TGI [3]: > 10 µM
- TGI [4]: > 10 µM
- TGI [14]: > 10 µM
- TGI [6]: > 10 µM
- TGI [15]: > 10 µM
- TGI [7]: > 10 µM
- TGI [8]: > 10 µM
- TGI [9]: > 10 µM
- TGI [11]: > 10 µM
- TGI [16]: > 10 µM
- TGI [12]: > 10 µM

Compound: CN(N)/N=N/c1nc[nH]c1[N+](=O)[O-]
- TGI [1]: 55.2 µM
- TGI [2]: > 100 µM
- TGI [3]: > 100 µM
- TGI [4]: 12.2 µM
- TGI [14]: 73 µM
- TGI [6]: > 100 µM
- TGI [15]: 54.6 µM
- TGI [7]: > 100 µM
- TGI [8]: > 100 µM
- TGI [11]: > 100 µM
- TGI [16]: > 100 µM
- TGI [12]: > 100 µM
- TGI [13]: > 100 µM

Compound: NC(CCC(=O)NC(CSC(=O)N(O)c1ccccc1)C(=O)NCC(=O)O)C(=O)O (stereo not drawn)
- TGI [1]: > 1000 µM
- TGI [2]: > 1000 µM
- TGI [3]: > 1000 µM
- TGI [4]: > 1000 µM
- TGI [5]: > 1000 µM
- TGI [14]: > 1000 µM
- TGI [6]: > 1000 µM
- TGI [15]: > 1000 µM
- TGI [7]: > 1000 µM
- TGI [8]: > 1000 µM
- TGI [9]: > 1000 µM
- TGI [10]: > 1000 µM
- TGI [11]: > 1000 µM
- TGI [12]: > 1000 µM
- TGI [13]: > 1000 µM
